# Laboratory results from ChEMBL document CHEMBL1128652, “Synthesis of the macrolide antibiotic, oxolide” (Bioorg Med Chem Lett, 1995).
# The source made the active and inactive calls. No cut-off for these calls is given here.
# Tested on: Haemophilus influenzae
# Test: Antibacterial activity against gram-negative bacteria, Haemophilus influenzae; A - found to be active
# Type: functional, organism-based
compound,measurement,value
CC[C@H]1OC(=O)[C@H](C)[C@@H](O[C@H]2C[C@@](C)(OC)[C@@H](O)[C@H](C)O2)[C@H](C)[C@@H](O[C@@H]2O[C@H](C)C[C@H](N(C)C)[C@H]2O)[C@@](C)(O)C[C@@H](C)[C@@H]2O[C@]1(C)[C@@H](N)[C@H]2C,Activity,Active
